ChEMBL document CHEMBL1201862, “PubChem BioAssay data set” (2004)
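Cultured in 96-well plates, cells were exposed to test compound for 48 hours across five concentrations. GI50 is the concentration that inhibits growth by half.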 The source made the active and inactive calls. Rule as the data show it: active = GI50 up to about 1.1 µM and inactive = higher.

How the values were obtained:
Experiment in all cases: DTP human tumour cell line panel, 48 h
[1] = system: HCC 2998
[2] = system: HL-60
[3] = system: RPMI-8226
[4] = system: KM12
[5] = system: MCF7
[6] = system: SK-MEL-28
[7] = system: OVCAR-4
[8] = system: UACC-62
[9] = system: SW-620
[10] = system: EKVX
[11] = system: Hs-578T
[12] = system: SK-OV-3
[13] = system: OVCAR-8
[14] = system: SF-295
[15] = system: NCI-H23
[16] = system: OVCAR-3
[17] = system: A498
[18] = system: IGROV-1
[19] = system: T47D

SMILES | GI50 [1] | GI50 [2] | GI50 [3] | GI50 [4] | GI50 [5] | GI50 [6] | GI50 [7] | GI50 [8] | GI50 [9] | GI50 [10] | GI50 [11] | GI50 [12] | GI50 [13] | GI50 [14] | GI50 [15] | GI50 [16] | GI50 [17] | GI50 [18] | GI50 [19]
O[C@@H]1C[C@H]2N3CC[C@@]2(c2cc4c(cc2C3)OCO4)[C@H]2O[C@@H]12 | > 100 µM (inactive) | > 100 µM (inactive) | > 100 µM (inactive) | > 100 µM (inactive) | > 100 µM (inactive) | > 100 µM (inactive) | > 100 µM (inactive) | > 100 µM (inactive) | > 100 µM (inactive) | > 100 µM (inactive) | > 100 µM (inactive) | > 100 µM (inactive) | > 100 µM (inactive) | > 100 µM (inactive) | > 100 µM (inactive) | > 100 µM (inactive) | > 100 µM (inactive) | > 100 µM (inactive) | –
NS(=O)(=O)c1nnc(NC(=O)N(c2ccccc2)c2ccccc2)s1 | – | 16.3 µM (inactive) | 17 µM (inactive) | 21.6 µM (inactive) | 38.1 µM (inactive) | 39 µM (inactive) | 27.9 µM (inactive) | 21.9 µM (inactive) | 29.9 µM (inactive) | 24.8 µM (inactive) | 25 µM (inactive) | 59.6 µM (inactive) | 19.9 µM (inactive) | 34 µM (inactive) | 19.1 µM (inactive) | 19.5 µM (inactive) | – | 17.7 µM (inactive) | –
COc1cccc(C2C3=C(COC3=O)Oc3cc4c(cc32)OCO4)c1 (stereo not given) | 0.0723 µM (active) | < 0.0146 µM (active) | 0.0156 µM (active) | < 0.0142 µM (active) | 0.0246 µM (active) | 0.0327 µM (active) | 0.424 µM (active) | 0.0134 µM (active) | 0.0188 µM (active) | 0.177 µM (active) | < 0.0176 µM (active) | 0.0414 µM (active) | 0.0421 µM (active) | < 0.0303 µM (active) | 0.0653 µM (active) | 0.0219 µM (active) | 0.0264 µM (active) | 0.0738 µM (active) | –
CCOC(=O)CC/C(C)=N\n1c(Cc2ccc(Cl)cc2)n[nH]c1=O | > 100 µM (inactive) | > 100 µM (inactive) | > 100 µM (inactive) | > 100 µM (inactive) | > 100 µM (inactive) | > 100 µM (inactive) | – | > 100 µM (inactive) | > 100 µM (inactive) | – | > 100 µM (inactive) | – | > 100 µM (inactive) | > 100 µM (inactive) | > 100 µM (inactive) | > 100 µM (inactive) | – | > 100 µM (inactive) | > 100 µM (inactive)
O=C1N/C(=N\C2CCCCC2)C2(CCN(CCCC3(c4ccc(F)cc4)OCCO3)CC2)N1c1ccccc1 | – | 11.7 µM (inactive) | 23 µM (inactive) | 18 µM (inactive) | 21.2 µM (inactive) | 18.6 µM (inactive) | 18.5 µM (inactive) | > 10 µM (inactive) | 21.2 µM (inactive) | 16.8 µM (inactive) | 14.4 µM (inactive) | 21 µM (inactive) | 24.8 µM (inactive) | 19.9 µM (inactive) | 17.9 µM (inactive) | 11.8 µM (inactive) | – | – | 17 µM (inactive)
COC(=O)/C=C/c1cc2c(cc1-c1c(C(=O)O)cc(OC)c(OC)c1OC)OCO2 | > 10 µM (inactive) | > 10 µM (inactive) | > 10 µM (inactive) | > 10 µM (inactive) | > 10 µM (inactive) | > 10 µM (inactive) | > 10 µM (inactive) | > 10 µM (inactive) | > 10 µM (inactive) | – | > 10 µM (inactive) | > 10 µM (inactive) | > 10 µM (inactive) | > 10 µM (inactive) | > 10 µM (inactive) | > 10 µM (inactive) | – | > 10 µM (inactive) | > 10 µM (inactive)
C[Si](C)(C)CNC(=O)OCc1ccccc1 | > 100 µM (inactive) | 57.4 µM (inactive) | 32.2 µM (inactive) | > 100 µM (inactive) | > 100 µM (inactive) | > 100 µM (inactive) | 87.1 µM (inactive) | > 100 µM (inactive) | > 100 µM (inactive) | 76.7 µM (inactive) | – | 0.962 µM (active) | > 100 µM (inactive) | > 100 µM (inactive) | 76 µM (inactive) | > 100 µM (inactive) | > 100 µM (inactive) | > 100 µM (inactive) | 19.1 µM (inactive)
CC(=O)NCCc1c(-c2[nH]c3ccccc3c2CCNC(C)=O)[nH]c2ccccc12 | > 100 µM (inactive) | – | > 100 µM (inactive) | – | > 100 µM (inactive) | > 100 µM (inactive) | 49.2 µM (inactive) | > 100 µM (inactive) | > 100 µM (inactive) | > 100 µM (inactive) | 40.1 µM (inactive) | 51.2 µM (inactive) | 78.2 µM (inactive) | > 100 µM (inactive) | > 100 µM (inactive) | > 100 µM (inactive) | 74.8 µM (inactive) | 24.6 µM (inactive) | –
NC(=O)c1cnc2sc3ccccc3n2c1=O | > 100 µM (inactive) | > 100 µM (inactive) | > 100 µM (inactive) | > 100 µM (inactive) | > 100 µM (inactive) | > 100 µM (inactive) | > 100 µM (inactive) | > 100 µM (inactive) | > 100 µM (inactive) | 21.9 µM (inactive) | 26.4 µM (inactive) | > 100 µM (inactive) | > 100 µM (inactive) | > 100 µM (inactive) | – | > 100 µM (inactive) | – | > 100 µM (inactive) | > 100 µM (inactive)
Cc1cc(C)c2cc(N)c(Cl)nc2n1 | – | > 100 µM (inactive) | > 100 µM (inactive) | > 100 µM (inactive) | > 100 µM (inactive) | – | – | > 100 µM (inactive) | > 100 µM (inactive) | > 100 µM (inactive) | > 100 µM (inactive) | > 100 µM (inactive) | > 100 µM (inactive) | > 100 µM (inactive) | > 100 µM (inactive) | – | – | > 100 µM (inactive) | > 100 µM (inactive)
CSC1=N/C(=C\c2ccc(C)cc2)C(=O)N1CN1CCOCC1 | – | > 100 µM (inactive) | 23.7 µM (inactive) | 91.8 µM (inactive) | 31.2 µM (inactive) | > 10 µM (inactive) | 0.622 µM (active) | 93.3 µM (inactive) | 40 µM (inactive) | 47.4 µM (inactive) | 84.9 µM (inactive) | > 100 µM (inactive) | 45.6 µM (inactive) | > 100 µM (inactive) | 92.7 µM (inactive) | > 100 µM (inactive) | 98.2 µM (inactive) | 28.2 µM (inactive) | –
CC[C@@]1(O)C(=O)OCc2c1cc1n(c2=O)Cc2c-1nc1ccccc1c2/C=N\NC(=O)C(N)CCSC (stereo not given in full) | 0.336 µM (active) | < 0.01 µM (active) | < 0.0282 µM (active) | 0.254 µM (active) | < 0.01 µM (active) | 1.03 µM (active) | 0.299 µM (active) | < 0.01 µM (active) | 0.0883 µM (active) | 0.668 µM (active) | – | < 0.0127 µM (active) | < 0.0119 µM (active) | < 0.01 µM (active) | < 0.01 µM (active) | 0.352 µM (active) | 0.0628 µM (active) | 0.239 µM (active) | < 0.01 µM (active)
